Reference: patent US20230085307A1, “PYRIDAZINONE COMPOUND AND HERBICIDE” (NISSAN CHEMICAL CORPORATION, priority 2019, published 2023)

Tests used:
persian speedwell = experiment: Test Example 4: herbicidal effect by soil treatment (Table 19, symbol R); format: in vivo, Persian speedwell (Veronica persica)
Outline: (§1)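 Pre-emergence style soil spray: seeds under ~1.5 cm sterilized diluvial soil received a uniform coat of emulsion diluted to the predetermined herbicide amount. Greenhouse 25–30° C; readout at week three on previously defined criteria.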

wild oat = experiment: Test Example 4: herbicidal effect by soil treatment (Table 19, symbol I); format: in vivo, wild oat (Avena fatua)
Outline: as §1

redroot pigweed [1] = experiment: Test Example 4: herbicidal effect by soil treatment (Table 19, symbol N); format: in vivo, redroot pigweed (Amaranthus retroflexus)
Outline: as §1

blackgrass [2] = experiment: Test Example 5: herbicidal effect by foliage application, plastic box (Table 20, symbol J); format: in vivo, blackgrass (Alopecurus myosuroides); details: foliage application; for herbicidal effect grade, J: blackgrass / herbicidal effect on J: blackgrass (criteria 0-5): 320 g/ha; for herbicidal effect on J: blackgrass (criteria 0-5): evaluated three weeks after application
Outline: (§2)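 Plants were sown into sterilized diluvial soil under about 1.5 cm cover and kept in a greenhouse at 25° C. to 30° C. Fourteen days on, foliage received an even spray of the diluted emulsion. Herbicidal or crop effect was judged three weeks afterwards.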

chickweed [3] = experiment: Test Example 4: herbicidal effect by soil treatment (Table 19, symbol P); format: in vivo, common chickweed (Stellaria media)
Outline: as §1

green foxtail [4] = experiment: Test Example 4: herbicidal effect by soil treatment (Table 19, symbol G); format: in vivo, green foxtail (Setaria viridis)
Outline: as §1

chickweed [5] = experiment: Test Example 5: herbicidal effect by foliage application, plastic box (Table 20, symbol P); format: in vivo, common chickweed (Stellaria media); details: foliage application, 320 g/ha; for herbicidal effect grade, P: chickweed: three weeks after application; for herbicidal effect on P: chickweed (criteria 0-5): evaluated three weeks after application
Outline: as §2

Italian ryegrass = experiment: Test Example 4: herbicidal effect by soil treatment (Table 19, symbol K); format: in vivo, Italian ryegrass (Lolium multiflorum)
Outline: as §1

oval-leafed pondweed [6] = experiment: Test Example 2: herbicidal activity, application during weed generation under submerged conditions (Table 17, symbol C); format: in vivo, oval-leafed pondweed (Monochoria vaginalis); details: application during weed generation, submerged conditions
Outline: (§3)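 Steps: fill Wagner pots with alluvial soil; add water to give 4 cm depth; sow the species mixed; grow under glass at 25–30° C.; at 1–2 leaves apply water-diluted emulsion formulation to the water surface at a fixed herbicide amount; score after 3 weeks.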

barnyard grass = experiment: Test Example 5: herbicidal effect by foliage application, plastic box (Table 20, symbol H); format: in vivo, barnyard grass (Echinochloa crus-galli); details: foliage application; for herbicidal effect grade, H: barnyard grass / herbicidal effect on H: barnyard grass (criteria 0-5): 320 g/ha; for herbicidal effect on H: barnyard grass (criteria 0-5): evaluated three weeks after application
Outline: as §2

green foxtail [7] = experiment: Test Example 5: herbicidal effect by foliage application, plastic box (Table 20, symbol G); format: in vivo, green foxtail (Setaria viridis); details: foliage application
Outline: as §2

late watergrass = experiment: Test Example 2: herbicidal activity, application during weed generation under submerged conditions (Table 17, symbol A); format: in vivo, late watergrass (Echinochloa oryzicola); details: application during weed generation, submerged conditions
Outline: as §3

redroot pigweed [8] = experiment: Test Example 5: herbicidal effect by foliage application, plastic box (Table 20, symbol N); format: in vivo, redroot pigweed (Amaranthus retroflexus); details: foliage application, 320 g/ha; for herbicidal effect grade, N: redroot pigweed: three weeks after application; for herbicidal effect on N: redroot pigweed (criteria 0-5): evaluated three weeks after application
Outline: as §2

rice flat sedge = experiment: Test Example 3: herbicidal effect by foliage application, Wagner pot (Table 18, symbol E); format: in vivo, rice flat sedge (Cyperus iria); details: for herbicidal effect on E (rice flat sedge), rating 0-5: 320 g/ha; for herbicidal effect on E: rice flat sedge: amount of applied herbicide 320 g/ha
Outline: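 Plants were sown in alluvial soil held under 0.1–0.5 cm standing water and grown 14 days in a greenhouse at 25–30 °C. An emulsifiable formulation, water-diluted to the set dose, was then sprayed onto the foliage, and effects were scored three weeks later using previously defined criteria.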

blackgrass [9] = experiment: Test Example 4: herbicidal effect by soil treatment (Table 19, symbol J); format: in vivo, blackgrass (Alopecurus myosuroides)
Outline: as §1

oval-leafed pondweed [10] = experiment: Test Example 1: herbicidal activity, application before weed generation under submerged conditions (Table 16, symbol C); format: in vivo, oval-leafed pondweed (Monochoria vaginalis); details: for Herbicidal effect on C: oval-leafed pondweed (grade 0-5): 320 g/ha applied herbicide
Outline: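 Emulsion formulation, water-diluted to set dose, was put onto the flooded surface (4 cm depth, alluvial soil) the same day weeds were sown and 2.5-leaf rice transplanted. After 3 weeks at 25-30 °C under glass, each species was rated 0 (≤5% kill) to 5 (≥90% kill).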

[11] = amount of applied herbicide 320 g/ha
[12] = 320 g/ha, three weeks after application
[13] = amount of applied herbicide 246 g/ha
[14] = 246 g/ha, three weeks after application

SMILES | herbicidal effect rating, R: persian speedwell (persian speedwell; [11]) | herbicidal effect rating, I: wild oat (wild oat; [11]) | herbicidal effect rating, N: redroot pigweed (redroot pigweed [1]; [11]) | herbicidal effect grade, J: blackgrass (blackgrass [2]; three weeks after application) | herbicidal effect grade, P: chickweed (chickweed [5]) | herbicidal effect rating, K: Italian ryegrass (Italian ryegrass; [11]) | herbicidal effect rating, C: oval-leafed pondweed (oval-leafed pondweed [6]; AAH 320 g/ha) | herbicidal effect grade, H: barnyard grass (barnyard grass; three weeks after application) | herbicidal effect grade, G: green foxtail (green foxtail [7]; [12]) | herbicidal effect rating, A: late watergrass (late watergrass; AAH 320 g/ha) | herbicidal effect grade, N: redroot pigweed (redroot pigweed [8]) | herbicidal effect on E (rice flat sedge), rating 0-5 (rice flat sedge) | herbicidal effect rating, J: blackgrass (blackgrass [9]; [11]) | Herbicidal effect on C: oval-leafed pondweed (grade 0-5) (oval-leafed pondweed [10]) | herbicidal effect on J: blackgrass (criteria 0-5) (blackgrass [2]) | herbicidal effect on P: chickweed (criteria 0-5) (chickweed [5]) | herbicidal effect on H: barnyard grass (criteria 0-5) (barnyard grass) | herbicidal effect on N: redroot pigweed (criteria 0-5) (redroot pigweed [8]) | herbicidal effect on E: rice flat sedge (rice flat sedge) | other results
Cc1nn(C)c(=O)c(-c2c(-c3ccc(OC(C)C)cc3)sc3ccccc23)c1O [1-020] | 5 (Herbicidal rate of 90% or more (almost completely withered)) | 0 (Herbicidal rate of 5% or less (almost no effect)) | 0 (Herbicidal rate of 5% or less (almost no effect)) | 4 (Herbicidal rate of 70% or more and less than 90%) | 5 (Herbicidal rate of 90% or more (almost completely withered)) | 3 (Herbicidal rate of 40% or more and less than 70%) | 3 (Herbicidal rate of 40% or more and less than 70%) | 4 (Herbicidal rate of 70% or more and less than 90%) | 3 (Herbicidal rate of 40% or more and less than 70%) | 2 (Herbicidal rate of 20% or more and less than 40%) | 3 (Herbicidal rate of 40% or more and less than 70%) | 5 (Herbicidal rate of 90% or more (almost completely withered)) | 1 (Herbicidal rate of 5% or more and less than 20%) | 4 (Herbicidal rate of 70% or more and less than 90%) | – | – | – | – | – | herbicidal effect rating, P: chickweed (chickweed [3]; [11]): 3 (Herbicidal rate of 40% or more and less than 70%); herbicidal effect rating, G: green foxtail (green foxtail [4]; [11]): 5 (Herbicidal rate of 90% or more (almost completely withered))
CCCCOc1ccc(-c2sc3ccccc3c2-c2c(OC(=O)CCC)c(C)nn(C)c2=O)cc1 [1-025] | 3 (Herbicidal rate of 40% or more and less than 70%) | 0 (Herbicidal rate of 5% or less (almost no effect)) | 5 (Herbicidal rate of 90% or more (almost completely withered)) | 0 (Herbicidal rate of 5% or less (almost no effect)) | 5 (Herbicidal rate of 90% or more (almost completely withered)) | 0 (Herbicidal rate of 5% or less (almost no effect)) | 3 (Herbicidal rate of 40% or more and less than 70%) | 4 (Herbicidal rate of 70% or more and less than 90%) | 3 (Herbicidal rate of 40% or more and less than 70%) | 0 (Herbicidal rate of 5% or less (almost no effect)) | 5 (Herbicidal rate of 90% or more (almost completely withered)) | 5 (Herbicidal rate of 90% or more (almost completely withered)) | 0 (Herbicidal rate of 5% or less (almost no effect)) | 4 (Herbicidal rate of 70% or more and less than 90%) | – | – | – | – | – | –
Cc1nn(C)c(=O)c(-c2c(-c3cccc(OC(C)C)c3)sc3ccc(F)cc23)c1O [2-215] | – | – | – | – | – | – | 0 (Herbicidal rate of 5% or less (almost no effect)) | – | – | 2 (Herbicidal rate of 20% or more and less than 40%) | – | – | – | 0 (Herbicidal rate of 5% or less (almost no effect)) | 3 (Herbicidal rate of 40% or more and less than 70%) | 5 (Herbicidal rate of 90% or more (almost completely withered)) | 5 (Herbicidal rate of 90% or more (almost completely withered)) | 5 (Herbicidal rate of 90% or more (almost completely withered)) | 4 (Herbicidal rate of 70% or more and less than 90%) | R: persian speedwell, herbicidal effect rating (persian speedwell; [11]): 4 (Herbicidal rate of 70% or more and less than 90%); I: wild oat, herbicidal effect rating (wild oat; [11]): 0 (Herbicidal rate of 5% or less (almost no effect)); N: redroot pigweed, herbicidal effect rating (redroot pigweed [1]; [11]): 5 (Herbicidal rate of 90% or more (almost completely withered)); G: green foxtail, herbicidal effect rating (green foxtail [4]; [11]): 5 (Herbicidal rate of 90% or more (almost completely withered)); K: Italian ryegrass, herbicidal effect rating (Italian ryegrass; [11]): 3 (Herbicidal rate of 40% or more and less than 70%); herbicidal effect on G: green foxtail (criteria 0-5) (green foxtail [7]; 320 g/ha, evaluated three weeks after application): 5 (Herbicidal rate of 90% or more (almost completely withered)); J: blackgrass, herbicidal effect rating (blackgrass [9]; [11]): 1 (Herbicidal rate of 5% or more and less than 20%)
CCCCCOc1cccc(-c2sc3ccc(F)cc3c2-c2c(O)c(C)nn(C)c2=O)c1 [2-225] | – | – | – | – | – | – | 0 (Herbicidal rate of 5% or less (almost no effect)) | – | – | 3 (Herbicidal rate of 40% or more and less than 70%) | – | – | – | 3 (Herbicidal rate of 40% or more and less than 70%) | 0 (Herbicidal rate of 5% or less (almost no effect)) | 5 (Herbicidal rate of 90% or more (almost completely withered)) | 3 (Herbicidal rate of 40% or more and less than 70%) | 5 (Herbicidal rate of 90% or more (almost completely withered)) | 4 (Herbicidal rate of 70% or more and less than 90%) | herbicidal effect on R: persian speedwell (persian speedwell; [11]): 0 (Herbicidal rate of 5% or less (almost no effect)); herbicidal effect on I: wild oat (wild oat; [11]): 0 (Herbicidal rate of 5% or less (almost no effect)); herbicidal effect on N: redroot pigweed (redroot pigweed [1]; [11]): 5 (Herbicidal rate of 90% or more (almost completely withered)); herbicidal effect on P: chickweed (chickweed [3]; [11]): 0 (Herbicidal rate of 5% or less (almost no effect)); herbicidal effect on G: green foxtail (green foxtail [4]; [11]): 0 (Herbicidal rate of 5% or less (almost no effect)); herbicidal effect on K: Italian ryegrass (Italian ryegrass; [11]): 0 (Herbicidal rate of 5% or less (almost no effect)); herbicidal effect on J: blackgrass (blackgrass [9]; [11]): 0 (Herbicidal rate of 5% or less (almost no effect))
CCCC(=O)Oc1c(C)nn(C)c(=O)c1-c1c(-c2ccc(F)cc2OCC)oc2ccc(C)cc12 [9-010] | – | – | – | – | – | – | – | – | – | – | – | – | – | – | – | – | – | – | – | R: persian speedwell, herbicidal effect grade (persian speedwell; [13]): 0 (Herbicidal rate of 5% or less (almost no effect)); I: wild oat, herbicidal effect grade (wild oat; [13]): 0 (Herbicidal rate of 5% or less (almost no effect)); N: redroot pigweed, herbicidal effect grade (redroot pigweed [1]; [13]): 0 (Herbicidal rate of 5% or less (almost no effect)); herbicidal effect on blackgrass (J) (blackgrass [2]; [14]): 0 (Herbicidal rate of 5% or less (almost no effect)); P: chickweed, herbicidal effect grade (chickweed [3]; [13]): 0 (Herbicidal rate of 5% or less (almost no effect)); G: green foxtail, herbicidal effect grade (green foxtail [4]; [13]): 3 (Herbicidal rate of 40% or more and less than 70%); K: Italian ryegrass, herbicidal effect grade (Italian ryegrass; [13]): 0 (Herbicidal rate of 5% or less (almost no effect)); herbicidal effect rating, C: oval-leafed pondweed (oval-leafed pondweed [6]; AAH 246 g/ha): 2 (Herbicidal rate of 20% or more and less than 40%); herbicidal effect on barnyard grass (H) (barnyard grass; [14]): 3 (Herbicidal rate of 40% or more and less than 70%); herbicidal effect on green foxtail (G) (green foxtail [7]; [14]): 2 (Herbicidal rate of 20% or more and less than 40%); herbicidal effect rating, A: late watergrass (late watergrass; AAH 246 g/ha): 0 (Herbicidal rate of 5% or less (almost no effect)); Herbicidal effect on E (rice flat sedge), foliage application (rice flat sedge; [13]): 4 (Herbicidal rate of 70% or more and less than 90%); J: blackgrass, herbicidal effect grade (blackgrass [9]; [13]): 0 (Herbicidal rate of 5% or less (almost no effect)); Herbicidal effect, C: oval-leafed pondweed (oval-leafed pondweed [10]; [13]): 3 (Herbicidal rate of 40% or more and less than 70%)
